Values after ≈ are worked out from the molar mass of the structure shown.
Tests used:
Staphylococcus aureus [1] = experiment: In vitro antibacterial activity against Staphylococcus aureus; type: functional
Enterococcus faecalis [2] = experiment: In vitro antibacterial activity against Enterococcus faecalis; type: functional
Staphylococcus aureus [3] = experiment: In vivo efficacy;(sc) tested for protection against staphylococcus infections in mice; type: functional; details: read-out: PD50
Streptococcus pneumoniae [4] = experiment: In vitro antibacterial activity against Streptococcus pneumoniae; type: functional
[5] = Aqueous solubility at neutral pH; type: physicochemical
Staphylococcus aureus [6] = experiment: In vitro antibacterial activity against […]; 0.125-0.25; type: functional
Streptococcus pneumoniae [7] = experiment: In vitro antibacterial activity against Streptococcus pneumoniae; 0.003-0.015; type: functional
Enterococcus faecalis [8] = experiment: In vitro antibacterial activity against Enterococcus faecalis; 0.06-0.125; type: functional

Compound	MIC (Staphylococcus aureus [1]) [µg/mL]	MIC (Enterococcus faecalis [2]) [µg/mL]	ED50 (Staphylococcus aureus [3]) [mg/kg]	MIC (Streptococcus pneumoniae [4]) [µg/mL]	solubility [5] [µg/mL]	MIC (Staphylococcus aureus [6]) [µg/mL]	MIC (Streptococcus pneumoniae [7]) [µg/mL]	MIC (Enterococcus faecalis [8]) [µg/mL]
C=C(NC(=O)c1csc(-c2nc3c(cc2O)-c2nc(cs2)C(=O)N[C@@H]([C@@H](C)O)C(=O)N/C(=C(\C)OC)c2nc(cs2)C(=O)N[C@@H]2c4nc(cs4)C(=O)N[C@@H](COC(=O)c4c5c6c(cccc6n4OCP(=O)(OCC)OCC)COC(=O)[C@@H](O[C@H]4C[C@](C)(O)[C@H](N(C)C)[C@H](C)O4)[C@H]2OC5)c2nc-3cs2)n1)C(N)=O	0.015 (≈ 0.00945 µM)	0.03 (≈ 0.0189 µM)	1.6	0.001 (≈ 0.00063 µM)				
C=C(NC(=O)c1csc(-c2nc3c(cc2O)-c2nc(cs2)C(=O)N[C@@H]([C@@H](C)O)C(=O)N/C(=C(\C)OC)c2nc(cs2)C(=O)N[C@@H]2c4nc(cs4)C(=O)N[C@@H](COC(=O)c4c5c6c(cccc6n4OC)COC(=O)[C@@H](O[C@H]4C[C@](C)(O)[C@H](N(C)C)[C@H](C)O4)[C@H]2OC5)c2nc-3cs2)n1)C(N)=O	0.03 (≈ 0.0207 µM)	0.125 (≈ 0.0861 µM)	< 0.62	0.003 (≈ 0.00207 µM)				
C=C(NC(=O)c1csc(-c2nc3c(cc2O)-c2nc(cs2)C(=O)N[C@@H]([C@@H](C)O)C(=O)N/C(=C(\C)OC)c2nc(cs2)C(=O)N[C@@H]2c4nc(cs4)C(=O)N[C@@H](COC(=O)c4c5c6c(cccc6n4OCCCN4CCN(C)CC4)COC(=O)[C@@H](O[C@H]4C[C@](C)(O)[C@H](N(C)C)[C@H](C)O4)[C@H]2OC5)c2nc-3cs2)n1)C(N)=O	1 (≈ 0.634 µM)	1 (≈ 0.634 µM)	8.7	0.03 (≈ 0.019 µM)				
C=C(NC(=O)c1csc(-c2nc3c(cc2O)-c2nc(cs2)C(=O)N[C@@H]([C@@H](C)O)C(=O)N/C(=C(\C)OC)c2nc(cs2)C(=O)N[C@@H]2c4nc(cs4)C(=O)N[C@@H](COC(=O)c4c5c6c(cccc6n4OCCC(=O)O)COC(=O)[C@@H](O[C@H]4C[C@](C)(O)[C@H](N(C)C)[C@H](C)O4)[C@H]2OC5)c2nc-3cs2)n1)C(N)=O	0.125 (≈ 0.0828 µM)	0.25 (≈ 0.166 µM)	10	0.03 (≈ 0.0199 µM)	~70 (≈ 46.4 µM)			
C=C(NC(=O)c1csc(-c2nc3c(cc2OCOP(=O)(O)O)-c2nc(cs2)C(=O)N[C@@H]([C@@H](C)O)C(=O)N/C(=C(\C)OC)c2nc(cs2)C(=O)N[C@@H]2c4nc(cs4)C(=O)N[C@@H](COC(=O)c4c5c6c(cccc6n4OCOP(=O)(O)O)COC(=O)[C@@H](O[C@H]4C[C@](C)(O)[C@H](N(C)C)[C@H](C)O4)[C@H]2OC5)c2nc-3cs2)n1)C(N)=O	0.125 (≈ 0.0754 µM)	0.25 (≈ 0.151 µM)	0.15	0.015 (≈ 0.00905 µM)	> 2000			
C=CCOc1cc2c(nc1-c1nc(C(=O)NC(=C)C(N)=O)cs1)-c1csc(n1)[C@@H]1COC(=O)c3c4c5c(cccc5n3OCC=C)COC(=O)[C@@H](O[C@H]3C[C@](C)(O)[C@H](N(C)C)[C@H](C)O3)[C@@H](OC4)[C@H](NC(=O)c3csc(n3)/C(=C(/C)OC)NC(=O)[C@H]([C@@H](C)O)NC(=O)c3csc-2n3)c2nc(cs2)C(=O)N1	0.06 (≈ 0.0395 µM)	0.25 (≈ 0.165 µM)	> 10	0.0005 (≈ 0.000329 µM)				
C=C(NC(=O)c1csc(-c2nc3c(cc2O)-c2nc(cs2)C(=O)N[C@@H]([C@@H](C)O)C(=O)N/C(=C(\C)OC)c2nc(cs2)C(=O)N[C@@H]2c4nc(cs4)C(=O)N[C@@H](COC(=O)c4c5c6c(cccc6n4OCCCS(=O)(=O)O)COC(=O)[C@@H](O[C@H]4C[C@](C)(O)[C@H](N(C)C)[C@H](C)O4)[C@H]2OC5)c2nc-3cs2)n1)C(N)=O	0.125 (≈ 0.0801 µM)	0.125 (≈ 0.0801 µM)	4	0.007 (≈ 0.00449 µM)	> 2000			
C=C(NC(=O)c1csc(-c2nc3c(cc2OCCN2CCOCC2)-c2nc(cs2)C(=O)N[C@@H]([C@@H](C)O)C(=O)N/C(=C(\C)OC)c2nc(cs2)C(=O)N[C@@H]2c4nc(cs4)C(=O)N[C@@H](COC(=O)c4c5c6c(cccc6n4OCCN4CCOCC4)COC(=O)[C@@H](O[C@H]4C[C@](C)(O)[C@H](N(C)C)[C@H](C)O4)[C@H]2OC5)c2nc-3cs2)n1)C(N)=O	1 (≈ 0.601 µM)	0.25 (≈ 0.15 µM)	> 10	0.03 (≈ 0.018 µM)				
C=C(NC(=O)c1csc(-c2nc3c(cc2O)-c2nc(cs2)C(=O)N[C@@H]([C@@H](C)O)C(=O)N/C(=C(\C)OC)c2nc(cs2)C(=O)N[C@@H]2c4nc(cs4)C(=O)N[C@@H](COC(=O)c4c5c6c(cccc6n4OCCOCCOCCOCCOCCOCO)COC(=O)[C@@H](O[C@H]4C[C@](C)(O)[C@H](N(C)C)[C@H](C)O4)[C@H]2OC5)c2nc-3cs2)n1)C(N)=O	0.125 (≈ 0.0741 µM)	0.5 (≈ 0.296 µM)	> 10	0.007 (≈ 0.00415 µM)				
C=C(NC(=O)c1csc(-c2nc3c(cc2O)-c2nc(cs2)C(=O)N[C@@H]([C@@H](C)O)C(=O)N/C(=C(\C)OC)c2nc(cs2)C(=O)N[C@@H]2c4nc(cs4)C(=O)N[C@@H](COC(=O)c4c5c6c(cccc6n4OCOP(=O)(OC(C)(C)C)OC(C)(C)C)COC(=O)[C@@H](O[C@H]4C[C@](C)(O)[C@H](N(C)C)[C@H](C)O4)[C@H]2OC5)c2nc-3cs2)n1)C(N)=O	0.125 (≈ 0.0753 µM)	0.015 (≈ 0.00904 µM)	3	0.015 (≈ 0.00904 µM)	> 2000			
C=C(NC(=O)c1csc(-c2nc3c(cc2O)-c2nc(cs2)C(=O)N[C@@H]([C@@H](C)O)C(=O)N/C(=C(\C)OC)c2nc(cs2)C(=O)N[C@@H]2c4nc(cs4)C(=O)N[C@@H](COC(=O)c4c5c6c(cccc6n4OCCC[N+](C)(C)C)COC(=O)[C@@H](O[C@H]4C[C@](C)(O)[C@H](N(C)C)[C@H](C)O4)[C@H]2OC5)c2nc-3cs2)n1)C(N)=O	> 128	2	> 10	0.5				
C=C(NC(=O)c1csc(-c2nc3c(cc2OC)-c2nc(cs2)C(=O)N[C@@H]([C@@H](C)O)C(=O)N/C(=C(\C)OC)c2nc(cs2)C(=O)N[C@@H]2c4nc(cs4)C(=O)N[C@@H](COC(=O)c4c5c6c(cccc6n4O)COC(=O)[C@@H](O[C@H]4C[C@](C)(O)[C@H](N(C)C)[C@H](C)O4)[C@H]2OC5)c2nc-3cs2)n1)C(N)=O	0.015 (≈ 0.0103 µM)	0.015 (≈ 0.0103 µM)	> 10	0.003 (≈ 0.00207 µM)				
C=C(NC(=O)c1csc(-c2nc3c(cc2O)-c2nc(cs2)C(=O)N[C@@H]([C@@H](C)O)C(=O)N/C(=C(\C)OC)c2nc(cs2)C(=O)N[C@@H]2c4nc(cs4)C(=O)N[C@@H](COC(=O)c4c5c6c(cccc6n4OCCCN)COC(=O)[C@@H](O[C@H]4C[C@](C)(O)[C@H](N(C)C)[C@H](C)O4)[C@H]2OC5)c2nc-3cs2)n1)C(N)=O	0.25 (≈ 0.167 µM)	1 (≈ 0.669 µM)	> 10	0.06 (≈ 0.0401 µM)				
C=C(NC(=O)c1csc(-c2nc3c(cc2OCCCS(=O)(=O)O)-c2nc(cs2)C(=O)N[C@@H]([C@@H](C)O)C(=O)N/C(=C(\C)OC)c2nc(cs2)C(=O)N[C@@H]2c4nc(cs4)C(=O)N[C@@H](COC(=O)c4c5c6c(cccc6n4O)COC(=O)[C@@H](O[C@H]4C[C@](C)(O)[C@H](N(C)C)[C@H](C)O4)[C@H]2OC5)c2nc-3cs2)n1)C(N)=O	2 (≈ 1.28 µM)	32 (≈ 20.5 µM)	> 10	0.25 (≈ 0.16 µM)				
C=C(NC(=O)c1csc(-c2nc3c(cc2OCCCS(=O)(=O)O)-c2nc(cs2)C(=O)N[C@@H]([C@@H](C)O)C(=O)N/C(=C(\C)OC)c2nc(cs2)C(=O)N[C@@H]2c4nc(cs4)C(=O)N[C@@H](COC(=O)c4c5c6c(cccc6n4OCCCS(=O)(=O)O)COC(=O)[C@@H](O[C@H]4C[C@](C)(O)[C@H](N(C)C)[C@H](C)O4)[C@H]2OC5)c2nc-3cs2)n1)C(N)=O	> 128	128 (≈ 76.1 µM)		0.5 (≈ 0.297 µM)	> 2000			
C=C(NC(=O)c1csc(-c2nc3c(cc2O)-c2nc(cs2)C(=O)N[C@@H]([C@@H](C)O)C(=O)N/C(=C(\C)OC)c2nc(cs2)C(=O)N[C@@H]2c4nc(cs4)C(=O)N[C@@H](COC(=O)c4c5c6c(cccc6n4OCCn4ccnc4)COC(=O)[C@@H](O[C@H]4C[C@](C)(O)[C@H](N(C)C)[C@H](C)O4)[C@H]2OC5)c2nc-3cs2)n1)C(N)=O	0.5 (≈ 0.326 µM)	1 (≈ 0.653 µM)	> 10	0.015 (≈ 0.00979 µM)				
C=C(NC(=O)c1csc(-c2nc3c(cc2O)-c2nc(cs2)C(=O)N[C@@H]([C@@H](C)O)C(=O)N/C(=C(\C)OC)c2nc(cs2)C(=O)N[C@@H]2c4nc(cs4)C(=O)N[C@@H](COC(=O)c4c5c6c(cccc6n4OCCCOC4O[C@H](CO)[C@@H](O)[C@H](O)[C@H]4O)COC(=O)[C@@H](O[C@H]4C[C@](C)(O)[C@H](N(C)C)[C@H](C)O4)[C@H]2OC5)c2nc-3cs2)n1)C(N)=O (stereo not given in full)	16 (≈ 9.65 µM)	> 128	> 10	0.06 (≈ 0.0362 µM)				
C=C(NC(=O)c1csc(-c2nc3c(cc2O)-c2nc(cs2)C(=O)N[C@@H]([C@@H](C)O)C(=O)N/C(=C(\C)OC)c2nc(cs2)C(=O)N[C@@H]2c4nc(cs4)C(=O)N[C@@H](COC(=O)c4c5c6c(cccc6n4OCCN4CCOCC4)COC(=O)[C@@H](O[C@H]4C[C@](C)(O)[C@H](N(C)C)[C@H](C)O4)[C@H]2OC5)c2nc-3cs2)n1)C(N)=O			3.4			< 0.25	< 0.015	< 0.125
C=C(NC(=O)c1csc(-c2nc3c(cc2OCC(=O)N(C)C)-c2nc(cs2)C(=O)N[C@@H]([C@@H](C)O)C(=O)N/C(=C(\C)OC)c2nc(cs2)C(=O)N[C@@H]2c4nc(cs4)C(=O)N[C@@H](COC(=O)c4c5c6c(cccc6n4OCC(=O)N(C)C)COC(=O)[C@@H](O[C@H]4C[C@](C)(O)[C@H](N(C)C)[C@H](C)O4)[C@H]2OC5)c2nc-3cs2)n1)C(N)=O	8 (≈ 4.98 µM)	4 (≈ 2.49 µM)	> 10	0.125 (≈ 0.0777 µM)				

From ChEMBL document CHEMBL1146687, “Novel semi-synthetic nocathiacin antibiotics: synthesis and antibacterial activity of bis- and mono-O-alkylated derivatives” (Bioorg Med Chem Lett, 2004)
